Data set [1] concerns intracellular carboxylesterases (U937 cell extract). Kind of data set: Broken cell carboxylesterase assay, U937 cell extract. To be noted: ester 2.5 μM, 37° C. Format: in vitro ADME. Here is the method: Any given compound of the present invention wherein R1 is an ester group may be tested to determine whether it meets the requirement that it be hydrolysed by intracellular esterases, by testing in the following assay.
U937 or Hut78 tumour cells (˜10^9) were washed in 4 volumes of Dulbeccos PBS (˜1 liter) and pelleted at 525 g for 10 min at 4° C. This was repeated twice and the final cell pellet was resuspended in 35 mL of cold homogenising buffer (Trizma 10 mM, NaCl 130 mM, CaCl2 0.5 mM pH 7.0 at 25° C.). Homogenates were prepared by nitrogen cavitation (700 psi for 50 min at 4° C.). The homogenate was kept on ice and supplemented with a cocktail of inhibitors at final concentrations of: • Leupeptin 1 μM • Aprotinin 0.1 μM • E64 8 μM • Pepstatin 1.5 μM • Bestatin 162 μM • Chymostatin 33 μM After clarification of the cell homogenate by centrifugation at 525 g for 10 min, the resulting supernatant was used as a source of esterase activity and was stored at −80° C. until required. Measurement of Ester Cleavage
Hydrolysis of esters to the corresponding carboxylic acids can be measured using the cell extract, prepared as above. To this effect cell extract (˜30 μg/total assay volume of 0.5 ml) was incubated at 37° C. in a Tris-HCl 25 mM, 125 mM NaCl buffer, pH 7.5 at 25° C. At zero time the ester (substrate) was then added at a final concentration of 2.5 μM and the samples were incubated at 37° C. for the appropriate time (usually 0 or 80 min). Reactions were stopped by the addition of 3× volumes of acetonitrile. For zero time samples the acetonitrile was added prior to the ester compound. After centrifugation at 12000 g for 5 min, samples were analysed for the ester and its corresponding carboxylic acid at room temperature by LCMS (Sciex API 3000, HP1100 binary pump, CTC PAL). Chromatography was based on an AceCN (75×2.1 mm) column and a mobile phase of 5-95% acetonitrile in water/0.1% formic acid.
Rates of hydrolysis are expressed in pg/mL/min.

Another data set has as its system U937 cells. Kind of data set: U937 cell inhibition assay (WST-1 cell viability). In kind it is cell-based. The following applies: for IC50: Homo sapiens, U-937. The method, boiled down: (§1)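 Log-phase cells seeded at 1000-2000/well, grown 24 h, then exposed to compound for 72-96 h before WST-1 viability readout. Eight concentrations (top 10 μM final, 3-fold steps), 6 replicates; % inhibition versus DMSO, IC50 by sigmoidal variable-slope fit.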

The subject of another data set is HeLa cells. Kind of data set: HeLa cell inhibition assay (sulphorhodamine B cell viability). In kind it is cell-based. The following applies: Homo sapiens, IC50 allocated to ranges. Here is the method: HeLa cells growing in log phase were harvested and seeded at 1000 cells/well (200 μl final volume) into 96-well tissue culture plates. Following 24 h of cell growth cells were treated with compounds (final concentration of 20 μM). Plates were then re-incubated for a further 72 h before a sulphorhodamine B (SRB) cell viability assay was conducted according to the methodology described by Skehan et al, J. Natl. Canc. Inst., 1990, 82, 1107-1112.
Data were expressed as a percentage inhibition of the control, measured in the absence of inhibitor, as follows:— % inhibition=100−[(S^i/S^o)×100] where S^i is the signal in the presence of inhibitor and S^o is the signal in the presence of DMSO.
IC50 values were determined by non-linear regression analysis, after fitting the results of eight data points to the equation for sigmoidal dose response with variable slope (% activity against log concentration of Compound), using Graphpad Prism software.

In data set [2] the target is histone deacetylase activity (HeLa nuclear extract). In words: HDAC fluorescent activity assay (Fluor de Lys, Biomol). In kind it is biochemical. Put shortly:
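HeLa nuclear extract as HDAC source incubated with acetyl-lysine Fluor de Lys substrate ± inhibitor; developer then releases fluorophore from deacetylated substrate. Activity as % of vehicle control after no-enzyme background subtraction; IC50 from eight-point variable-slope sigmoidal fit.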

A further data set concerns HUT78 cells. Kind of data set: HUT cell inhibition assay (WST-1 cell viability). Format: cell-based. The following applies: Homo sapiens. Put shortly:
as §1

[3] abbreviates: U937 cells, IC50 allocated to ranges, read-out: U937 activity.
The mark [4] stands for this setting: IC50 allocated to ranges, read-out: HDAC activity.
Where [5] appears, read: HUT78 cells, IC50 allocated to ranges, read-out: HUT activity.

Each structure is given as a SMILES string. Like-named read-outs stand apart in the source and are kept apart here.

Regarding `COc1cc2c(Oc3ccc(NC(=O)c4ccccc4)cc3)ccnc2cc1C`, the “Hydrolysis Rate Range U937 Cells” value in data set [1] was in the range of 100 to 1000 pg/mL/min.

`Cc1ccc2cc(C(=O)NO)sc2c1` [drawing 84]: the “Hydrolysis Rate Range U937 Cells” value in data set [1] was 1000 to 50000 pg/mL/min.

Turning to `Cc1ccc(NCc2cnc3nc(N)nc(N)c3c2C)cc1` [drawing 90], the “Hydrolysis Rate Range U937 Cells” value in data set [1] was greater than 50000 pg/mL/min.

Regarding `Cc1ccc2cc(C(=O)NO)sc2c1` [drawing 98], the “Hydrolysis Rate Range U937 Cells” value in data set [1] is listed as greater than 50000 pg/mL/min.

For `Cc1ccc2cc(C(=O)NO)sc2c1` [drawing 87], the “Hydrolysis Rate Range U937 Cells” value in data set [1] is greater than 50000 pg/mL/min.

Regarding `Cc1ccc(NCc2cnc3nc(N)nc(N)c3c2C)cc1` [drawing 96], the “Hydrolysis Rate Range U937 Cells” value in data set [1] was greater than 50000 pg/mL/min.

For `CC(C)C[C@@H](NCc1ccc(/C=C/C(=O)NO)cc1)C(=O)OC1CCCC1` [Example 18, Cyclopentyl N-{4-[(1E)-3-(hydroxyamino)-3-oxoprop-1-en-1-yl]benzyl}-D-leucinate], the IC50 with U937 cells (setting [3]) was 331 to 3300 nM; with HeLa cells, greater than 3300 nM; in data set [2] (setting [4]), 101 to 1000 nM; with HUT78 cells (setting [5]), 331 to 3300 nM.

For the molecule `CC(C)(C)OC[C@H](NCc1ccc(CNCc2ccc(/C=C/C(=O)NO)cc2)cc1)C(=O)OC1CCCC1` [Example 75, Cyclopentyl O-tert-butyl-N-{4-[({4-[(1E)-3-(hydroxyamino)-3-oxoprop-1-en-1-yl]benzyl}amino)methyl]benzyl}-L-serinate], the IC50 with U937 cells (setting [3]) is less than 330 nM; in the data set on HeLa cells, 331 to 3300 nM; in data set [2] (setting [4]), 101 to 1000 nM; in the data set on HUT78 cells (setting [5]), less than 330 nM.

Regarding `CC(C)C[C@H](NCc1ccc(CCC(=O)NO)cc1)C(=O)OCCN(C)C` [Example 38, 2-(Dimethylamino)ethyl N-{4-[3-(hydroxyamino)-3-oxopropyl]benzyl}-L-leucinate], the IC50 is 331 to 3300 nM in the data set with U937 cells (setting [3]), greater than 3300 nM in the data set with HeLa cells, 101 to 1000 nM in data set [2] (setting [4]) and greater than 3300 nM in the data set with HUT78 cells (setting [5]).

On to `O=C(/C=C/c1cccc(S(=O)(=O)N[C@H](C(=O)OC2CCCC2)C2CCCCC2)c1)NO` [Example 2, Cyclopentyl (2S)-cyclohexyl[({3-[(1E)-3-(hydroxyamino)-3-oxoprop-1-en-1-yl]phenyl}sulfonyl)amino]acetate], for which the IC50 in the data set with U937 cells (setting [3]) is 331 to 3300 nM; in the data set on HeLa cells, 331 to 3300 nM; in data set [2] (setting [4]), less than 100 nM; with HUT78 cells (setting [5]) it was 331 to 3300 nM.

In the case of `CC(C)C[C@H](NCCCOc1ccc(/C=C/C(=O)NO)cc1)C(=O)OC1CCCC1` [Example 11, Cyclopentyl N-(3-{4-[(1E)-3-(hydroxyamino)-3-oxoprop-1-en-1-yl]phenoxy}propyl)-L-leucinate], the IC50 in the data set on U937 cells (setting [3]) is 331 to 3300 nM; in the data set with HeLa cells it was greater than 3300 nM; in data set [2] (setting [4]) it was 101 to 1000 nM; in the data set with HUT78 cells (setting [5]) it was 331 to 3300 nM.

As for `O=C(/C=C/c1ccc(CN[C@H](C(=O)OC2CCCC2)c2ccccc2)cc1)NO` [Example 17, Cyclopentyl (2S)-({4-[(1E)-3-(hydroxyamino)-3-oxoprop-1-en-1-yl]benzyl}amino)(phenyl)acetate], the IC50 was less than 330 nM with U937 cells (setting [3]), greater than 3300 nM with HeLa cells, 101 to 1000 nM in data set [2] (setting [4]) and 331 to 3300 nM with HUT78 cells (setting [5]).

As to `C=CCOC(=O)[C@@H](NCc1ccc(/C=C/C(=O)NO)cc1)C1CCCCC1` [Example 25, Allyl (2S)-cyclohexyl({4-[(1E)-3-(hydroxyamino)-3-oxoprop-1-en-1-yl]benzyl}amino)acetate], the IC50 was less than 330 nM with U937 cells (setting [3]), 331 to 3300 nM in the data set with HeLa cells, less than 100 nM in data set [2] (setting [4]) and 331 to 3300 nM with HUT78 cells (setting [5]).

Regarding `CC(C)C[C@H](NCc1ccc(CCC(=O)NO)cc1)C(=O)OC1CC2CCC1C2` (stereo partly drawn) [Example 36, Bicyclo[2.2.1]hept-2-yl N-{4-[3-(hydroxyamino)-3-oxopropyl]benzyl}-L-leucinate], the IC50 with U937 cells (setting [3]) was less than 330 nM; in the data set with HeLa cells it was 331 to 3300 nM; in data set [2] (setting [4]), 101 to 1000 nM; in the data set with HUT78 cells (setting [5]), less than 330 nM.

`O=C(/C=C/c1ccc(CN[C@H](C(=O)OC2CC3CCC2C3)C2CCCCC2)cc1)NO` (stereo partly drawn) [Example 26, Bicyclo[2.2.1]hept-2-yl (2S)-cyclohexyl({4-[(1E)-3-(hydroxyamino)-3-oxoprop-1-en-1-yl]benzyl}amino)acetate]: the IC50 in the data set on U937 cells (setting [3]) is less than 330 nM; in the data set with HeLa cells, 331 to 3300 nM; in data set [2] (setting [4]) it was 101 to 1000 nM; in the data set on HUT78 cells (setting [5]), 331 to 3300 nM.

`O=C(/C=C/c1ccc(CN[C@H](C(=O)OC2CCCC2)C2CCCCC2)cc1)NO` [Example 14, Cyclopentyl (2S)-cyclohexyl({4-[(1E)-3-(hydroxyamino)-3-oxoprop-1-en-1-yl]benzyl}amino)acetate]: the IC50 in the data set with U937 cells (setting [3]) was less than 330 nM; in the data set with U937 cells (U937 monocytic cell line, read-out: Inhibition of U937 cell proliferation (IC50-nM)), 5 nM; with HeLa cells it was 331 to 3300 nM; in data set [2] (setting [4]), less than 100 nM; in data set [2] (read-out: Inhibition of HDAC (IC50-nM)), 59 nM; in the data set on HUT78 cells (setting [5]) it was less than 330 nM. For the same molecule, in the data set with HUT78 cells (HUT78 non-monocytic cell line, read-out: Inhibition of HUT78 cell proliferation (IC50-nM)), the IC50 came to 230 nM. The “fold more potent as anti-proliferative agent than belinostat” value with U937 cells (monocytic cell line U937, versus belinostat) was 30 fold.

In the case of `CC(C)(C)OC[C@H](NS(=O)(=O)c1cccc(/C=C/C(=O)NO)c1)C(=O)OC1CCCC1` [Example 4, Cyclopentyl O-tert-butyl-N-({3-[(1E)-3-(hydroxyamino)-3-oxoprop-1-en-1-yl]phenyl}sulfonyl)-L-serinate], the IC50 in the data set on U937 cells (setting [3]) is 331 to 3300 nM; in the data set on HeLa cells, 331 to 3300 nM; in data set [2] (setting [4]) it was less than 100 nM; in the data set with HUT78 cells (setting [5]), 331 to 3300 nM.

With `Cc1ccc(NCc2cnc3nc(N)nc(N)c3c2C)cc1` [drawing 92], the “Hydrolysis Rate Range U937 Cells” value in data set [1] lay in the range of 1000 to 50000 pg/mL/min.

In the case of `Cc1ccc2cc(C(=O)NO)sc2c1` [drawing 101], in data set [1], the “Hydrolysis Rate Range U937 Cells” value was greater than 50000 pg/mL/min.

As to `CC(C)(C)OC[C@H](NC1CCN(Cc2ccc(/C=C/C(=O)NO)cc2)CC1)C(=O)OC1CCCC1` [Example 81, Cyclopentyl O-tert-butyl-N-(1-{4-[(1E)-3-(hydroxyamino)-3-oxoprop-1-en-1-yl]benzyl}piperidin-4-yl)-L-serinate], the IC50 was less than 330 nM in the data set on U937 cells (setting [3]), 331 to 3300 nM in the data set on HeLa cells, 101 to 1000 nM in data set [2] (setting [4]) and less than 330 nM in the data set on HUT78 cells (setting [5]).

In the case of `O=C(/C=C/c1ccc(CN2CCC(CN[C@H](C(=O)OC3CCCC3)c3ccccc3)CC2)cc1)NO` [Example 82, Cyclopentyl (2S)-{[(1-{4-[(1E)-3-(hydroxyamino)-3-oxoprop-1-en-1-yl]benzyl}piperidin-4-yl)methyl]amino}(phenyl)acetate], the IC50 with U937 cells (setting [3]) is 331 to 3300 nM; in the data set with HeLa cells it was 331 to 3300 nM; in data set [2] (setting [4]), less than 100 nM; in the data set with HUT78 cells (setting [5]), 331 to 3300 nM.

With `O=C(/C=C/c1ccc(CN[C@@H](C(=O)OC2CCCC2)C2CCCCC2)cc1)NO` [Example 19, Cyclopentyl (2R)-cyclohexyl({4-[(1E)-3-(hydroxyamino)-3-oxoprop-1-en-1-yl]benzyl}amino)acetate], the IC50 in the data set with U937 cells (setting [3]) is 331 to 3300 nM; in the data set with HeLa cells it was greater than 3300 nM; in data set [2] (setting [4]), 101 to 1000 nM; in the data set with HUT78 cells (setting [5]), greater than 3300 nM.

Consider `Cc1ccc(NCc2cnc3nc(N)nc(N)c3c2C)cc1` [drawing 94], for which the “Hydrolysis Rate Range U937 Cells” value in data set [1] was 1000 to 50000 pg/mL/min.

These data come from patent publication US9273003B2, “Methods of treating lymphoma and rheumatoid arthritis with cyclopentyl (2S)-cyclohexyl[({6-[3-(hydroxyamino)-3-oxopropyl]pyridin-3-yl}methyl)amino]acetate” (GlaxoSmithKline Intellectual Property Development Limited, priority 2006, dated 2016).
